Article PMC9145245, “Synthesis and Biochemical Evaluation of 8H-Indeno[1,2-d]thiazole Derivatives as Novel SARS-CoV-2 3CL Protease Inhibitors” (Molecules, 2022)
Where two headings read alike, the source gives them in different places.

Target: SARS-CoV-2 3CL^pro (Severe acute respiratory syndrome coronavirus 2, UniProt P0DTD1)
Assay: biochemical
Assay type: biochemical
Conditions: for inhibition at 20 µM: 20 μM compound; for inhibitory activity against SARS-CoV-2 3CL^pro (in words, SAR discussion): compared with 7a (7i–7k with 7h)
[1] = recombinant 3CLpro 40 nM, substrate 40 μM, mean ± SD, n = 3, read-out: SARS-CoV-2 3CL^pro IC50
[2] = recombinant 3CLpro 40 nM, mean ± SD, n = 3

Row | Compound | IC50 [1] | inhibition at 20 µM [2] | inhibitory activity against SARS-CoV-2 3CL^pro (in words, SAR discussion) | IC50
1 | COc1cc(OC)cc(C(=O)Nc2nc3c(s2)Cc2ccc(OC)cc2-3)c1 [compound 4, 3,5-dimethoxy-N-(5-methoxy-8H-indeno[1,2-d]thiazol-2-yl)benzamide] | 6.42 ± 0.9 µM |  |  | 
2 | COc1cc(OC)cc(C(=O)Nc2nc3c(s2)Cc2cc(OC)ccc2-3)c1 [compound 7a] | 1.28 ± 0.17 µM | 89.5 ± 2% |  | 
3 | CCCCOc1ccc2c(c1)Cc1sc(NC(=O)c3cc(OC)cc(OC)c3)nc1-2 [compound 7b, N-(6-butoxy-8H-indeno[1,2-d]thiazol-2-yl)-3,5-dimethoxybenzamide] | > 20 µM | 0.5 ± 4.9% | completely abolished | 
4 | COc1cc(OC)cc(C(=O)Nc2nc3c(s2)Cc2cc(OCC(C)C)ccc2-3)c1 [compound 7c, N-(6-isobutoxy-8H-indeno[1,2-d]thiazol-2-yl)-3,5-dimethoxybenzamide] | > 20 µM | -3.1 ± 1.7% | completely abolished | 
5 | COc1cc(OC)cc(C(=O)Nc2nc3c(s2)Cc2cc(C)ccc2-3)c1 [compound 7d, 3,5-dimethoxy-N-(6-methyl-8H-indeno[1,2-d]thiazol-2-yl)benzamide] | > 20 µM | 21.7 ± 2.2% | completely abolished | 
6 | COc1cc(OC)cc(C(=O)Nc2nc3c(s2)Cc2cc(Cl)ccc2-3)c1 [compound 7e, N-(6-chloro-8H-indeno[1,2-d]thiazol-2-yl)-3,5-dimethoxybenzamide] | > 20 µM | 27.2 ± 5.3% | completely abolished | 
7 | COc1ccc2c(c1)Cc1sc(NC(=O)c3cc(OC)c(OC)c(OC)c3)nc1-2 [compound 7f, 3,4,5-trimethoxy-N-(6-methoxy-8H-indeno[1,2-d]thiazol-2-yl)benzamide] | > 20 µM | 5 ± 5.6% | dropped significantly | 
8 | COc1ccc2c(c1)Cc1sc(NC(=O)c3cc(OC(C)=O)cc(OC(C)=O)c3)nc1-2 [compound 7g, 5-((6-methoxy-8H-indeno[1,2-d]thiazol-2-yl)carbamoyl)-1,3-phenylene diacetate] | > 20 µM | 32.6 ± 6.8% | dropped significantly | 
9 | COc1cccc(C(=O)Nc2nc3c(s2)Cc2cc(OC)ccc2-3)c1 [compound 7h, 3-methoxy-N-(6-methoxy-8H-indeno[1,2-d]thiazol-2-yl)benzamide] | 2.86 ± 0.11 µM | 72.5 ± 6.1% | almost maintained its inhibitory activities | 
10 | COc1ccc2c(c1)Cc1sc(NC(=O)c3cccc(F)c3)nc1-2 [compound 7i, 3-fluoro-N-(6-methoxy-8H-indeno[1,2-d]thiazol-2-yl)benzamide] | > 20 µM | 20.3 ± 4.7% |  | 
11 | COc1ccc2c(c1)Cc1sc(NC(=O)c3cccs3)nc1-2 [compound 7j, N-(6-methoxy-8H-indeno[1,2-d]thiazol-2-yl)thiophene-2-carboxamide] |  | 31.9 ± 18.2% |  | > 20 µM
12 | COc1ccc2c(c1)Cc1sc(NC(=O)c3ccc(Cl)cc3)nc1-2 [compound 7k, 4-chloro-N-(6-methoxy-8H-indeno[1,2-d]thiazol-2-yl)benzamide] | > 20 µM | 1.5 ± 4.5% |  | 
13 | COc1cc(OC)cc(C(=O)Nc2nc3c(s2)CCc2cc(OC)ccc2-3)c1 [compound 7l] | > 20 µM | -13.1 ± 1.7% | did not show any inhibitory activity | 
14 | COc1cc(OC)cc(C(=O)Nc2nc(-c3ccc(OC)cc3C)cs2)c1 [compound 10a] | > 20 µM | 1.9 ± 2.1% | lost inhibitory activities | 
15 | COc1cc(OC)cc(C(=O)Nc2nc(-c3ccc(OC)c(C)c3)cs2)c1 [compound 10b, 3,5-dimethoxy-N-(4-(4-methoxy-3-methylphenyl)thiazol-2-yl)benzamide] | > 20 µM | 1.8 ± 3.5% | lost inhibitory activities | 
